# Test results from patent US9730914B2, “3,5-diaminopyrazole kinase inhibitors” (Axikin Pharmaceuticals, Inc., priority 2014, dated 2017).
# Columns and labels:
# [1] = biological target: T1, JAK3 (Homo sapiens, UniProt P52333); test: Kinase competition binding assay (Kd, qPCR readout), JAK3; conditions: for Kd: Kd class, JAK3, read-out: JAK3 Activity Level; for RCK:JAK3 selectivity ratio: ratio Kd (JAK3): Kd (RCK)
# T1 construct: made in house; host or cells: E. coli BL21-derived host (T7 phage) or HEK-293
# In short: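 Competition binding in which kinase, either T7 phage-tagged or HEK-293-expressed and DNA-tagged, was exposed to immobilized biotinylated ligand and test compound for 1 h at room temperature. Bead-bound kinase was eluted and quantified by qPCR. Kd came from 11-point 3-fold dilutions, top concentration 30,000 nM and 1% DMSO, repeated lower if below 0.5 nM.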
# [2] = biological target: T2, kinase domain protein of RC kinase (RCK) (Homo sapiens, UniProt Q56UN5); test: Kinase competition binding assay (Kd, qPCR readout), RC kinase; conditions: Kd class, read-out: RCK Activity Level
# T2 construct: made in house; host or cells: E. coli BL21-derived host (T7 phage) or HEK-293
# T2 sequence (Q56UN5 1061-1324 limits assumed): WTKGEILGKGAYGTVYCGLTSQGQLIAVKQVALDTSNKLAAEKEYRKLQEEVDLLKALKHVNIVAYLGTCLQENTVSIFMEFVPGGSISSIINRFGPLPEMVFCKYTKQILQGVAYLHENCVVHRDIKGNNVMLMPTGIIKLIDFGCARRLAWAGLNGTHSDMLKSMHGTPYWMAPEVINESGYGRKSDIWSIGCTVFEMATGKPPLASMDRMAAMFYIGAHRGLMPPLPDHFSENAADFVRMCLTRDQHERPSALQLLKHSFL
# In short: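 Competition binding: DNA-tagged kinase (T7 phage or HEK-293-expressed) plus immobilized biotinylated ligand beads and compound, 1 h at room temperature, 1% DMSO. Bead-bound kinase eluted and quantified by qPCR. Kd from 11-point 3-fold dilution, top 30,000 nM, retested lower if below 0.5 nM.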
# [3] = biological target: T3, JAK2 (Homo sapiens, UniProt O60674); test: Kinase competition binding assay (Kd, qPCR readout), JAK2; conditions: for Kd: Kd class, JAK2, read-out: JAK2 Activity Level; for RCK:JAK2 selectivity ratio: ratio Kd (JAK2): Kd(RCK)
# T3 construct: made in house; host or cells: E. coli BL21-derived host (T7 phage) or HEK-293
# In short: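 Competition binding: DNA-tagged kinase (T7 phage or HEK-293-expressed), immobilized biotinylated ligand beads and compound in SeaBlock/PBS/Tween/DTT buffer, 1 hour at room temperature; bound kinase eluted and quantified by qPCR. Kd from 11-point 3-fold dilution, top 30,000 nM typically, final DMSO 1%.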
# T3 sequence (O60674 840-1132 limits assumed): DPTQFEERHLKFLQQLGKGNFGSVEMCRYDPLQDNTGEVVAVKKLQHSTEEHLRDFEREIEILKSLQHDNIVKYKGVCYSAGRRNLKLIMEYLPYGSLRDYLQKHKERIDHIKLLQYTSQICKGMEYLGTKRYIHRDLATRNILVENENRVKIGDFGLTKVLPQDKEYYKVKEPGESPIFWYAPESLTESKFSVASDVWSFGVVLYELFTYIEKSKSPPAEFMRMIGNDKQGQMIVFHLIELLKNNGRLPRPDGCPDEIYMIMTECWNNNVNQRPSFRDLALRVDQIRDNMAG
# T1 sequence (P52333 811-1124 limits assumed): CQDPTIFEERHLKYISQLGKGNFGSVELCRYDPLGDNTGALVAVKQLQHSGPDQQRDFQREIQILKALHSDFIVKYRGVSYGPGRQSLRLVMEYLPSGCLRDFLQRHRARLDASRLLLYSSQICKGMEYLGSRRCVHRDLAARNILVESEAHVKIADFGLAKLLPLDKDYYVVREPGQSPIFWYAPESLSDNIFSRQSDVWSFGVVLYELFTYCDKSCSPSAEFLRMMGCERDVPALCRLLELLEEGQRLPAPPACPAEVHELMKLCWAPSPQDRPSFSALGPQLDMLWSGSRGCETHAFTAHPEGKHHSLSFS
SMILES,Kd [1] [nM],RCK:JAK3 selectivity ratio [1],Kd [2] [nM],Kd [3] [nM],RCK:JAK2 selectivity ratio [3]
"Cc1cc(CNc2[nH]nc(Nc3ccc(-n4ccnc4)cc3)c2C(N)=O)cc(C)c1O [Compound 19, 3-((4-(1H-imidazol-1-yl)phenyl)amino)-5-((4-hydroxy-3,5-dimethylbenzyl)amino)-1H-pyrazole-4-carboxamide]",> 1000,A (A represents Kd (JAK3): Kd (RCK)>100),100 to 1000,> 1000,A (A represents Kd (JAK2): Kd (RCK)>100)
"COc1cccc(C(=O)Nc2ccc(Nc3n[nH]c(NCc4cc(C)c(O)c(C)c4)c3C(N)=O)cc2)c1 [Compound 56, 5-((4-hydroxy-3,5-dimethylbenzyl)amino)-3-((4-(3-methoxybenzamido)phenyl)amino)-1H-pyrazole-4-carboxamide]",> 1000,A (A represents Kd (JAK3): Kd (RCK)>100),100 to 1000,> 1000,B (B represents 10<Kd(JAK2): Kd (RCK)<100)
NC(=O)c1c(Nc2ccc(-c3cccnc3)cc2)n[nH]c1NCc1ccc(O)cc1 [reference compound],< 50,C (C represents 1<Kd (JAK3): Kd (RCK)<10),< 50,< 50,C (C represents 1<Kd (JAK2): Kd (RCK)<10)
"Cc1cc(CNc2[nH]nc(Nc3ccc(C(C)(C)C)cc3)c2C(N)=O)cc(C)c1O [Compound 21, 3-((4-(tert-butyl)phenyl)amino)-5-((4-hydroxy-3,5-dimethylbenzyl)amino)-1H-pyrazole-4-carboxamide]",> 1000,–,> 1000,> 1000,C (C represents 1<Kd (JAK2): Kd (RCK)<10)
"Cc1cc(CNc2[nH]nc(Nc3ccc(N4CCOCC4=O)cc3)c2C(N)=O)cc(C)c1O [Compound 59, 5-((4-hydroxy-3,5-dimethylbenzyl)amino)-3-((4-(3-oxomorpholino)phenyl)amino)-1H-pyrazole-4-carboxamide]",> 1000,B (B represents 10<Kd (JAK3): Kd (RCK)<100),100 to 1000,> 1000,B (B represents 10<Kd(JAK2): Kd (RCK)<100)
"Cc1cc(CNc2[nH]nc(Nc3ccc(N4CCN(C(C)C)CC4)c(Cl)c3)c2C(N)=O)cc(C)c1O [Compound 17, 3-((3-chloro-4-(4-isopropylpiperazin-1-yl)phenyl)amino)-5-((4-hydroxy-3,5-dimethylbenzyl)amino)-1H-pyrazole-4-carboxamide]",100 to 1000,A (A represents Kd (JAK3): Kd (RCK)>100),< 50,100 to 1000,A (A represents Kd (JAK2): Kd (RCK)>100)
CN1CCN(c2ccc(Nc3n[nH]c(NCc4ccc(O)cc4)c3C(N)=O)cc2Cl)CC1 [reference compound],< 50,C (C represents 1<Kd (JAK3): Kd (RCK)<10),< 50,< 50,D (D represents Kd(JAK2): Kd (RCK)<1)
NC(=O)c1c(Nc2ccc(N3CCOCC3)c(F)c2)n[nH]c1NCc1ccc(O)cc1 [reference compound],< 50,–,< 50,< 50,–
Cc1cc(Nc2n[nH]c(NCc3ccc(O)cc3)c2C(N)=O)cnc1N1CCOCC1 [reference compound],< 50,C (C represents 1<Kd (JAK3): Kd (RCK)<10),< 50,< 50,D (D represents Kd(JAK2): Kd (RCK)<1)
NC(=O)c1c(Nc2ccc(-c3ccccc3)cc2)n[nH]c1NCc1ccc(O)cc1 [reference compound],50 to 100,C (C represents 1<Kd (JAK3): Kd (RCK)<10),50 to 100,< 50,D (D represents Kd(JAK2): Kd (RCK)<1)
CC(C)N1CCN(c2ccc(Nc3n[nH]c(NCc4ccc(O)cc4)c3C(N)=O)cc2Cl)CC1 [reference compound],< 50,C (C represents 1<Kd (JAK3): Kd (RCK)<10),< 50,< 50,C (C represents 1<Kd (JAK2): Kd (RCK)<10)
NC(=O)c1c(Nc2ccc(S(N)(=O)=O)cc2)n[nH]c1NCc1ccc(O)cc1 [reference compound],< 50,D (D represents Kd (JAK3): Kd(RCK)<1),< 50,< 50,D (D represents Kd(JAK2): Kd (RCK)<1)
